Laboratory results from patent US8840904B2, “Compositions and methods for vaccinating against HSV-2” (priority 2006, dated 2014).
pIC50: −log10 of the molar value. No end group written: not given here.

Experiments:
recombinant HLA B*0702 = recombinant HLA B*0702 (Homo sapiens, UniProt P01889); assay: biochemical; type: binding
[1] = test system: CD8^+ T-cells specific for the “majority”; assay: Cross-reactivity of CD8+ T-cells with UL49 AA 49-57 variants; type: cell-based, human

Sequence | pIC50 (recombinant HLA B*0702) | cross-reactivity of majority-specific CD8^+ T-cells [1]
RPRGEVREFL | > 8.70 | 
RPRGKVRFL |  | not cross-reactive
